“And” between values parts separate entries of the source, which are not always exact repeats. Equal values may be shown once.
Experiments:
[1] = rabbit, in vivo; cited from earlier work
[2] = test system: fibrinogen; assay: Immunofluorescence study of thrombus composition, fibrinogen; parameters: species or system rat
Description: (§1) Following incubation with primary antibody for one hour, FITC-conjugated goat anti-mouse IgG and goat anti-mouse IgG antibodies (Sigma Chemical Co., St. Louis, Mo.) were used as secondary antibodies for anti-fibrinogen and anti-Factor VIII, respectively. The sections were observed by epi-illumination with a Nikon Microphot-FX microscope.

[3] = test system: Factor VIII; assay: Immunofluorescence study of thrombus composition, Factor VIII; parameters: species or system rat
Description: as §1

[4] = test system: corneal blood vessels; format: in vivo, New Zealand albino rabbit
Excerpt: Both corneal and limbal epithelia, along with the conjunctival epithelium 2-3 mm beyond the limbus, were removed from New Zealand albino rabbit eyes by n-heptanol debridement and surgical scraping (Huang et al., Ophthalmology, 95:228-235, 1988, the disclosure of which is hereby incorporated by reference and relied upon). The denuded corneas were healed by the remaining conjunctival epithelium within 9 to 12 days, of which 65% became extensively vascularized two to three weeks after healing. Sixteen corneas with persistent neovascularization of 20 months duration were subjected to photothrombotic treatment.
Occlusion of corneal blood vessels was achieved by intravenous injection of the rose bengal solution at a dosage of 40 mg/kg body weight followed by irradiation of the blood vessels with an argon green laser beam (514.5 nm in wavelength) set at a power of 130 mW, beam spot size of 63 μm in diameter, and duration of 0.2 second. During the irradiation, the corneal surface was rinsed with a balanced salt solution maintained at 37° C. to ensure the efficacy of photothrombosis. The laser beam was applied to the limbus at the arborization point of each feeder vessel. In 12 corneas, the blood vessels on the upper half of the cornea were photothrombosed and those on the lower half were left untreated and used as an internal control. In the remaining four corneas, the blood vessels on the entire cornea were treated. Each blood vessel was occluded within 10 consecutive shots of irradiation. For all corneas, the treatment was completed within 30 minutes after initial injection of rose bengal solution. After laser irradiation, topical antibiotics and steroids were applied for two days. This treatment was similar to that described in Watson et al., Lasers Surg. Med., 7:127, 1987.
External ocular examinations were performed to identify changes on the ocular surface before and after photothrombosis. Surface smoothness was examined by routine slitlamp biomicroscopy. External photographs were taken to document corneal clarity and regression of the vessels.
Occlusion of the corneal blood vessels and the duration of occlusion were further studied by routine corneal fluorescein angiography using an intravenous injection of 1 ml of 10 mg/ml of sodium fluorescein. Photographs and angiograms were taken with a Zeiss surgical microscope. Baseline angiography was performed two to three days before photothrombosis to avoid possible photosensitizing effects from the fluorescein used for angiography. Follow-up angiograms were taken on the scheduled dates to document the occlusive effect and its duration. Late phase fluorescein angiograms (5 minutes after injection) were chosen for comparisons. After occlusion was confirmed by angiography, the rabbits were sacrificed on the prescheduled date and corneal buttons were obtained and subjected to epithelial differentiation studies. The total follow-up duration was 18 weeks.

[5] = test system: corneal cholesterol; assay: Corneal cholesterol content after photothrombosis (Example 6); format: in vivo, New Zealand white rabbit; conditions: for Corneal Cholesterol Concentration, Difference Between Treated and Untreated Eyes / Corneal Cholesterol Concentration, Difference Between Treated and Untreated Eyes, %: individual rabbit
Excerpt: Nine New Zealand white strain rabbits weighting 1 to 2 kg were rendered hypercholesterolemic by foods that contained high levels of cholesterol, as described in Stock et. al., Arch. Ophthalmol., 103:726-730, 1985; and Mendelsohn et al., Ophthalmic Surg., 17:502-508, 1986. Eight days after commencement of the high-cholesterol diet, corneal sutures were implanted in both eyes according to the surgical procedure described in Mendelsohn et al., Ophthalmic Surg., 17:502-508, 1986.
On day 22, slit-lamp photographs and fluorescein angiograms were obtained of all corneas (Mendelsohn et al., Arch. Ophthalmol., 105:983-988, 1987, the disclosure of which is hereby incorporated by reference and relied upon). On the next day, one eye of each rabbit underwent laser surgery, with the other eye serving as a comparative control. Rose bengal dye was dissolved at a concentration of 30 mg/ml in 0.9% saline solution. For the initial injection, the dye solution was administered at a total body concentration of 45 mg/kg. For the two animals in which the procedure took longer than 25 minutes, a booster injection of 15 mg/kg was administered. Irradiations of corneal vessels were carried out with an argon ion laser (Model 95, Cooper Laser-Sonica, Sunnyvale, Calif.) operated in the TEM00 mode at 514.5 nm. The beam was directed toward an aluminized mechanical shutter (AW Vincent Associates, Rochester, NY), which reflected it at a right angle through a 514.5-nm custom interference filter with a transmittance of 92% (Omega Optical, Brattleboro, VT) and then through a fused silica lens with a focal length of 7.5 cm for focusing into a 2.5-m fiberoptic cable 400 μm in diameter. In the optical fiber, the gaussian input beam profile was converted into an output beam. The output was collimated by a plano convex lens 3.5 cm in focal length and focused with a plano convex lens with a focal length of 1.0 cm. The lenses were mounted in a beam telescope attached to an X-Y positioning device (Daedal Inc., Harrison City, Pa.). The beam diameter was measured with a calibrated reticle in the ocular of a ×20 operating microscope. By observing, through a 514.5-nm rejection filter, the fluorescence of a white card impregnated with rhodamine B, the minimum diameter of the organe fluorescent spot at the focal point was determined to be 63 μm. Combining the transmission efficiencies of the three uncoated lenses (92% per lens, 76% total transmission) with those of the optical fiber and interference filter yielded a system transmission efficiency of 61.5%. This reduced the incident power level of the laser from 215 mW to an effective power level of 132 mW; this corresponded to an incident intensity at the focal point of 4.23 kW/cm^2 . During shutter closure, irradiations were carried out in 0.2-s intervals. When the shutter was opened, the low-power beam, which was reflected off an optical flat and through the optical system, was used for aligning the next vessel selected for irradiation.
One eye of each rabbit was subjected to laser applications that were directed toward the vascular branching points of the limbal and corneal feeder vessels adjacent to the sites of lipid deposits. […] Initially, the irradiated segment appeared yellow-orange because the fluorescence of rose bengal had been absorbed into erythrocyte plasma membranes and plasma proteins. As platelets accumulated, the fluorescence became yellowish and less intense. […]

SMILES: O=C([O-])c1c(Cl)c(Cl)c(Cl)c(Cl)c1-c1c2cc(I)c(=O)c(I)c-2oc2c(I)c([O-])c(I)cc12.[Na+].[Na+] [rose bengal]
- half-life in blood [1]: three
- pH of isotonic saline solution (15 mg/ml): 6.80
- highest concentration which could be achieved practically (normal saline): 100 mg/mL
- fibrinogen in photoinduced MCA thrombi [2]: abundance
- Factor VIII in photoinduced MCA thrombi [3]: abundance
- consecutive shots to occlude each blood vessel ([4]; 40 mg/kg i.v., 130 mW, 0.2 second): ≤ 10 shots
- dye leakage in angiograms, treated areas ([4]; follow-up angiograms): free of dye leakage
- regression of occluded corneal blood vessels ([4]; four days after treatment): gradually regressed
- epithelial breakdown ([4]; rabbit, in vivo): No epithelial breakdown was observed
- persistence of hemorrhagic spots ([4]; rabbit, in vivo): two to three
- retention of rose bengal in corneas ([4]; rabbit, in vivo): all 16 corneas were clear of retained rose bengal
- occlusion of treated vessels ([4]; two corneas, 18 weeks): all treated vessels remained occluded without recanalization, and no new vessel growth elsewhere was observed
- Corneal Cholesterol Concentration, Difference Between Treated and Untreated Eyes ([5]; 45 mg/kg): 0.144 g of Cholesterol/100 g of Corn and 0.007 g of Cholesterol/100 g of Corn and 0.076 g of Cholesterol/100 g of Corn and 0.149 g of Cholesterol/100 g of Corn and 0.105 g of Cholesterol/100 g of Corn and 0.129 g of Cholesterol/100 g of Corn and 0.058 g of Cholesterol/100 g of Corn
- Corneal Cholesterol Concentration, Difference Between Treated and Untreated Eyes, % ([5]; 45 mg/kg): -36.5% and -2.5% and -24.3% and -41.7% and -29.1% and -42.0% and -21.9%
- Corneal Cholesterol Concentration, Difference Between Treated and Untreated Eyes ([5]; 60 mg/kg (45 plus booster 15)): 0.219 g of Cholesterol/100 g of Corn and 0.206 g of Cholesterol/100 g of Corn
- Corneal Cholesterol Concentration, Difference Between Treated and Untreated Eyes, % ([5]; 60 mg/kg (45 plus booster 15)): -58.6% and -51.8%
- average reduction of corneal cholesterol content ([5]; laser-treated vs control eyes): 36%

From patent US5053006A, “Method for the permanent occlusion of arteries” (priority 1990, dated 1991)
